According to patent CN109134566A, “一种1/20水利巴韦林化合物” (Individual, priority 2017, dated 2019):

Legend:
Type in all cases: physicochemical
[1] = Accelerated stability test of the bulk compound (试验例1 稳定性考察); details: 40℃±2℃, 6 months, sampled at 0, 1, 2, 3, 6 months
[2] = Accelerated stability of compressed tablets (试验例3 压片稳定性); details: round tablets 0.5 g/tablet, 40℃±2℃, 6 months, sampled at 0, 1, 2, 3, 6 months
[3] = Freeze-drying test, water before and after (试验例2 冷冻干燥试验); details: 0.25 g/vial, vacuum, -40℃, 24 h

change in water content (accelerated test) ([1]; 1/20水)	change in water content of compressed tablets (accelerated test) ([2]; 1/20水)	change in water content after freeze-drying ([3]; 1/20水)	change in water content (accelerated test) [1]	change in water content of compressed tablets (accelerated test) [2]	change in water content after freeze-drying [3]	Structure (SMILES)
未发生明显变化	未发生明显变化	未发生明显变化				NC(=O)c1ncn([C@@H]2O[C@H](CO)[C@@H](O)[C@H]2O)n1 [实施例1, 1/20水利巴韦林化合物]
			明显降低	明显降低	明显降低	NC(=O)c1ncn([C@@H]2O[C@H](CO)[C@@H](O)[C@H]2O)n1 [对比例1, 利巴韦林]
